Measured values from patent publication US20020026053A1, “Novel 3-(substituted) -2- indolinones compounds and use thereof as inhibitors of protein kinase activity” (priority 1997, published 2002).
Several values for one entry are separate records, joined by “and”; a condition that tells them apart may be missing. Identical values can stand only once.

system: FLK-1 receptor; assay: FLK-1 Assay (cellular/catalytic ELISA, VEGF-stimulated phosphotyrosine); assay type: cell-based; design: concentration or dose not given beside the values; conditions: not given
Summary of the method: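 NIH3T3 C7#3 cells engineered to express Flk-1 were serum-starved overnight (0.1% FBS), then exposed to compound for 2 h at 37 °C (final dilution 1:200, 0.5% DMSO) before VEGF stimulation. Lysates captured on anti-FLK-1 antiserum plates; phosphotyrosine detected by UB40 antibody/POD-ABTS ELISA versus untreated controls.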

Compound	Flk Kinase % Inhibition (P.110) [%]
CCOc1cc(C=C2C(=O)Nc3c(Br)cc(Br)c(C)c32)ccc1O [10720/H09]	−4.5
O=C1Nc2ccc(CCCl)cc2C1=Cc1ccc(Cl)cc1 [10736/G02]	−7.2
Cc1c(Br)cc(Br)c2c1C(=Cc1cccn1C)C(=O)N2 [10717/H04]	0.4
Cc1c(Br)cc(Br)c2c1C(=Cc1cc3ccccc3o1)C(=O)N2 [10724/H07]	1.1
Cc1c(Br)cc(Br)c2c1C(=Cc1ccc([N+](=O)[O-])c(O)c1)C(=O)N2 [10724/H04]	−3.0
Cc1c(Br)cc(Br)c2c1C(=Cc1ccc(O)cc1O)C(=O)N2 [10723/H08]	−4.2
Cc1c(Br)cc(Br)c2c1C(=Cc1cc(C(C)(C)C)c(O)c(C(C)(C)C)c1)C(=O)N2 [10721/H11]	−6.0
Cc1ccc(C=C2C(=O)Nc3c(Br)cc(Br)c(C)c32)o1 [10725/H04]	−5.1
Cc1c(Br)cc(Br)c2c1C(=Cc1ncc[nH]1)C(=O)N2 [10720/H11]	−8.8
Cc1c(Br)cc(Br)c2c1C(=Cc1csc([N+](=O)[O-])c1)C(=O)N2 [10722/H09]	3.3
Cc1c(Br)cc(Br)c2c1C(=Cc1ccc(O)c(C(C)(C)C)c1)C(=O)N2 [10721/H09]	7.0
Cc1c(Br)cc(Br)c2c1C(=Cc1ccc([N+](=O)[O-])s1)C(=O)N2 [10722/H04]	3.8
COc1cccc(C=C2C(=O)Nc3ccc(S(=O)(=O)N4CCOCC4)cc32)c1 [10736/F10]	7.7
COc1cccc(C=C2C(=O)Nc3c(Br)cc(Br)c(C)c32)c1O [10723/H03]	6.1
COc1cc(O)c(C=C2C(=O)Nc3c(Br)cc(Br)c(C)c32)c(OC)c1 [10724/H08]	13.1
Cc1cccc(C=C2C(=O)Nc3ccc(CCCl)cc32)c1 [10736/G04]	13.0
Cc1cc(C)c(C=C2C(=O)Nc3c(Br)cc(Br)c(C)c32)[nH]1 [10721/H08]	−6.8
Cc1c(Br)cc(Br)c2c1C(=Cc1cccc(Br)c1)C(=O)N2 [10723/H10]	−13.4
Cc1c(Br)cc(Br)c2c1C(=Cc1cc(Cl)c(O)c(C(C)(C)C)c1)C(=O)N2 [10722/H08]	−20.3
Cc1cc(C=C2C(=O)Nc3c(Br)cc(Br)c(C)c32)cc(C)c1O [10722/H07]	2.3
Cc1c(Br)cc(Br)c2c1C(=Cc1cc(Br)c(O)c(C(C)(C)C)c1)C(=O)N2 [10721/H10]	10.2

Compound	Flk Kinase % Inhibition (P.110) [%]
CCc1ccc(C=C2C(=O)Nc3c(Br)cc(Br)c(C)c32)o1 [10724/H10]	5.8
Cc1c(Br)cc(Br)c2c1C(=Cc1ccccc1Br)C(=O)N2 [10723/H07]	5.0
Cc1c(Br)cc(Br)c2c1C(=Cc1ccc(Cl)s1)C(=O)N2 [10721/H07]	−7.0
Cc1c(Br)cc(Br)c2c1C(=Cc1ccccc1)C(=O)N2 [10720/H06]	22.3
CC(=O)Oc1ccc(C=C2C(=O)Nc3c(Br)cc(Br)c(C)c32)cc1OC(C)=O [10723/H05]	−2.5
Cc1c(Br)cc(Br)c2c1C(=Cc1cc(C(C)C)c(O)c(C(C)C)c1)C(=O)N2 [10724/H06]	−5.1
Cc1cc(C=C2C(=O)Nc3c(Br)cc(Br)c(C)c32)ccc1O [10723/H06]	10.6
Cc1c(Br)cc(Br)c2c1C(=Cc1cc3c([nH]1)CCCC3)C(=O)N2 [10721/H05]	−8.4
CSc1ccc(C=C2C(=O)Nc3c(Br)cc(Br)c(C)c32)s1 [10720/H07]	−2.9
Cc1c(Br)cc(Br)c2c1C(=Cc1ccc(O)c([N+](=O)[O-])c1)C(=O)N2 [10724/H03]	1.8
Cc1c(Br)cc(Br)c2c1C(=Cc1ccccc1[N+](=O)[O-])C(=O)N2 [10726/H02]	−8.5
Cc1c(Br)cc(Br)c2c1C(=Cc1sc3scc(C)c3c1C)C(=O)N2 [10724/H11]	8.6
Cc1c(Br)cc(Br)c2c1C(=Cc1ccc(N3CCOCC3)cc1)C(=O)N2 [10725/H08]	17.2
Cc1c(Br)cc(Br)c2c1C(=Cc1ccc(N3CCN(C=O)CC3)cc1)C(=O)N2 [10725/H07]	8.6
Cc1c(Br)cc(Br)c2c1C(=Cc1c[nH]cn1)C(=O)N2 [10725/H11]	−40.8
Cc1c(Br)cc(Br)c2c1C(=Cc1c(Br)cnn1-c1ccc(Cl)cc1)C(=O)N2 [10725/H10]	7.8
Cc1c(Br)cc(Br)c2c1C(=Cc1ccc(O)c(O)c1O)C(=O)N2 [10723/H02]	9.0
Cc1c(Br)cc(Br)c2c1C(=Cc1cccn1-c1ccc(Cl)cc1)C(=O)N2 [10724/H09]	1.3
Cc1c(Br)cc(Br)c2c1C(=Cc1cc([N+](=O)[O-])cc(CCl)c1O)C(=O)N2 [10721/H06]	−7.9
Cc1c(Br)cc(Br)c2c1C(=Cc1nn(C)cc1Cl)C(=O)N2 [10721/H03]	7.8
Cc1c(Br)cc(Br)c2c1C(=Cc1sccc1Br)C(=O)N2 [10725/H02]	−7.6

Compound	Flk Kinase % Inhibition (P.110) [%]
Cc1cc(C=C2C(=O)Nc3c(Br)cc(Br)c(C)c32)[nH]n1 [10725/H05]	21.6
Cc1c(Br)cc(Br)c2c1C(=Cc1ccc(C(=O)O)cc1)C(=O)N2 [10722/H05]	4.3
COc1cc(C)cc(O)c1C=C1C(=O)Nc2c(Br)cc(Br)c(C)c21 [10725/H06]	16.1
Cc1c(Br)cc(Br)c2c1C(=Cc1cc(O)c(O)c(Br)c1)C(=O)N2 [10723/H04]	−20.2
COc1ccc(C=C2C(=O)Nc3c(Br)cc(Br)c(C)c32)c(O)c1 [10723/H09]	−0.4
COc1ccc(Br)c(C=C2C(=O)Nc3c(Br)cc(Br)c(C)c32)c1O [10725/H03]	−5.8
Cc1c(Br)cc(Br)c2c1C(=Cc1cccs1)C(=O)N2 [10717/H03]	8.6
CCCCN(CCCC)c1ccc(C=C2C(=O)Nc3c(Br)cc(Br)c(C)c32)cc1 [10722/H10]	−14.1
Cc1c(Br)cc(Br)c2c1C(=Cc1nc3ccccc3n1C)C(=O)N2 [10721/H02]	5.5
CCOc1ccccc1C=C1C(=O)Nc2c(Br)cc(Br)c(C)c21 [10717/H02]	4.0
Cc1c(Br)cc(Br)c2c1C(=Cc1ccccc1O)C(=O)N2 [10720/H05]	−12.3
Cc1cc(O)cc(O)c1C=C1C(=O)Nc2c(Br)cc(Br)c(C)c21 [10720/H08]	−23.7
COc1ccc(C=C2C(=O)Nc3c(Br)cc(Br)c(C)c32)cc1OC [10720/H04]	−5.8
Cc1cc(C=C2C(=O)Nc3c(Br)cc(Br)c(C)c32)sc1C [10721/H04]	0.7
O=C1Nc2ccc(CCCl)cc2C1=Cc1ccccc1C(F)(F)F [10736/G03]	4.5
Cc1c(Br)cc(Br)c2c1C(=Cc1c(O)cc(O)cc1O)C(=O)N2 [10722/H03]	2.1
COC(=O)Cc1c(Cl)[nH]c(C=C2C(=O)Nc3c(Br)cc(Br)c(C)c32)c1C(=O)OC [10725/H09]	−6.1
Cc1c(Br)cc(Br)c2c1C(=Cc1ccc(C(F)(F)F)cc1)C(=O)N2 [10722/H11]	−3.3
O=C1Nc2ccc(S(=O)(=O)N3CCOCC3)cc2C1=Cc1ccccc1Cl [10736/F11]	3.7

same assay, conditions: protocol P.110

Compound	Flk Kinase % Inhibition (P.110)
CCc1ccc(C=C2C(=O)Nc3ccc(CCCl)cc32)cc1 [10736/G09]	−2.1%
Cc1ccc(C=C2C(=O)Nc3c(Br)cc(Br)c(C)c32)cc1 [10736/H05]	16.3%
Cc1c(Br)cc(Br)c2c1C(=Cc1cccc(Cl)c1)C(=O)N2 [10736/H06]	15.5%
O=C1Nc2ccc(CCCl)cc2C1=Cc1ccccc1Cl [10736/G11]	0.0%
O=C1Nc2ccc(CCCl)cc2C1=Cc1cccc(F)c1 [10736/G07]	9.4%
COc1cccc(C=C2C(=O)Nc3ccc(CCCl)cc32)c1 [10736/G10]	6.0%
Cc1ccc(C=C2C(=O)Nc3ccc(CCCl)cc32)cc1 [10736/G05]	2.3% and 5.9%
Cc1c(Br)cc(Br)c2c1C(=Cc1ccccc1C(F)(F)F)C(=O)N2 [10736/H03]	15.1%
Cc1c(Br)cc(Br)c2c1C(=Cc1ccc(Cl)cc1)C(=O)N2 [10736/H02]	6.1%
Cc1cccc(C=C2C(=O)Nc3c(Br)cc(Br)c(C)c32)c1 [10736/H04]	14.0%
O=C1Nc2ccc(CCCl)cc2C1=Cc1ccccc1F [10736/G08]	−0.1%
